Measurements taken from ChEMBL document CHEMBL1275573, “Inhibition of herpesvirus replication by hexadecyloxypropyl esters of purine- and pyrimidine-based phosphonomethoxyethyl nucleoside phosphonates” (Antimicrob Agents Chemother, 2008).

Columns and labels:
Human betaherpesvirus 5 = assay: Antiviral activity against Human cytomegalovirus AD169 infected in HFF cells by plaque reduction assay; format: functional, organism-based; details: Human betaherpesvirus 5, AD169, HFF
[1] = Selectivity index, ratio of EC50 for Human herpesvirus 6B Z29 to CC50 for human MOLT-3 cells
[2] = Antiviral activity against Murine cytomegalovirus Smith infected in HFF cells by plaque reduction assay; format: functional, cell-based, Murine cytomegalovirus (strain Smith); details: Murid betaherpesvirus 1, HFF
[3] = Antiviral activity against Epstein-Barr virus p3hr-1 infected in human daudi cells; format: functional, cell-based, Epstein-barr virus strain p3hr-1; details: human gammaherpesvirus 4, Daudi
[4] = Selectivity index, ratio of EC50 for Murine cytomegalovirus Smith to CC50 for human HFF cell
[5] = Cytotoxicity against human HSB2 cell after 4 hrs by MTS assay; format: functional; details: CCRF-HSB-2, 4 h
[6] = Antiviral activity against Human herpesvirus 6A GS infected in human HSB-2 cells; format: functional, cell-based; details: Human betaherpesvirus 6A, HSB2
[7] = Antiviral activity against Human herpesvirus 6B Z29 infected in human MOLT-3 cells; format: functional, cell-based; details: Human betaherpesvirus 6B, Z29, MOLT-3
MOLT-3 = assay: Cytotoxicity against human MOLT3 cell after 4 hrs by MTS assay; format: functional; details: MOLT-3, 4 h
[8] = Cytotoxicity against human HFF cells; format: cell-based
[9] = Selectivity index, ratio of EC50 for herpes simplex virus type 2 MS to CC50 for human HFF cell
Human alphaherpesvirus 3 = assay: Antiviral activity against Varicella zoster virus Ellen infected in HFF cells by plaque reduction assay; format: functional, organism-based; details: Human alphaherpesvirus 3, Ellen
[10] = Cytotoxicity against human HFF cells after 7 days by neutral red dye method; format: cell-based
[11] = Selectivity index, ratio of EC50 for Epstein-Barr virus P3HR-1 to CC50 for human daudi cell
Daudi = assay: Cytotoxicity against human Daudi cell after 4 hrs by MTS assay; format: functional
Human alphaherpesvirus 1 = assay: Antiviral activity against herpes simplex virus 1 E-377 infected in HFF cells by plaque reduction assay; format: functional, organism-based; details: Human alphaherpesvirus 1, E-377, HFF
Human alphaherpesvirus 2 = assay: Antiviral activity against herpes simplex virus 2 MS infected in HFF cells by plaque reduction assay; format: functional, organism-based; details: Human alphaherpesvirus 2, MS
[12] = Selectivity index, ratio of EC50 for herpes simplex virus type 1 E-377 to CC50 for human HFF cell

SMILES: Nc1nc(=O)n(CCOCP(=O)(O)O)cc1F
- EC50 (Human betaherpesvirus 5): > 20 µM
- Selectivity Index [1]: 1
- EC50 [2]: 78 µM
- EC50 [3]: > 50 µM
- Selectivity Index [4]: 2.8
- CC50 [5]: > 41 µM
- EC50 [6]: > 50 µM
- EC50 [7]: > 50 µM
- CC50 (MOLT-3): > 50 µM
- CC50 [8]: 220 µM

SMILES: CCCCCCCCCCCCCCCCOCCCOP(=O)(O)COCCn1cc(F)c(N)nc1=O
- Selectivity Index [9]: <3
- EC50 (Human betaherpesvirus 5): 2 µM
- EC50 (Human alphaherpesvirus 3): 2.6 µM
- Selectivity Index [1]: >1
- EC50 [2]: 0.08 µM
- CC50 at 168 h [10]: 35 µM
- Selectivity Index [11]: >77
- EC50 [3]: 1.3 µM
- Selectivity Index [4]: 440
- CC50 (Daudi): > 100 µM
- CC50 [5]: 22.6 µM
- EC50 [6]: 7.2 µM
- EC50 [7]: 37 µM
- CC50 (MOLT-3): > 50 µM
- EC50 (Human alphaherpesvirus 1): > 12 µM
- CC50 [8]: 33 µM
- EC50 (Human alphaherpesvirus 2): > 12 µM
- Selectivity Index [12]: <3

SMILES: CCCCCCCCCCCCCCCCOCCCOP(=O)(O)COCCn1ccc(N)nc1=O
- Selectivity Index [9]: >9
- EC50 (Human betaherpesvirus 5): > 20 µM
- EC50 (Human alphaherpesvirus 3): > 300 µM
- Selectivity Index [1]: 1
- EC50 [2]: > 20 µM
- CC50 at 168 h [10]: > 300 µM
- Selectivity Index [11]: <2
- EC50 [3]: > 50 µM
- Selectivity Index [4]: <150
- CC50 (Daudi): > 100 µM
- CC50 [5]: > 50 µM
- EC50 [6]: > 50 µM
- EC50 [7]: > 50 µM
- CC50 (MOLT-3): > 50 µM
- EC50 (Human alphaherpesvirus 1): 260 µM
- CC50 [8]: 200 µM
- EC50 (Human alphaherpesvirus 2): 35 µM
- Selectivity Index [12]: >1.1

SMILES: Nc1nc(=O)n(CCOCP(=O)(O)O)cc1Br
- Selectivity Index [9]: >5
- EC50 (Human betaherpesvirus 5): > 20 µM
- EC50 (Human alphaherpesvirus 3): 38 µM
- Selectivity Index [1]: <2
- EC50 [2]: > 20 µM
- CC50 at 168 h [10]: > 300 µM
- Selectivity Index [11]: 1.1
- EC50 [3]: 24 µM
- Selectivity Index [4]: <150
- CC50 (Daudi): 27 µM
- CC50 [5]: 3.9 µM
- EC50 [6]: > 50 µM
- EC50 [7]: > 47 µM
- CC50 (MOLT-3): 84 µM
- EC50 (Human alphaherpesvirus 1): > 60 µM
- CC50 [8]: 200 µM
- EC50 (Human alphaherpesvirus 2): > 60 µM
- Selectivity Index [12]: >5

SMILES: CCCCCCCCCCCCCCCCOCCCOP(=O)(O)COCCn1cnc2c(N)nc(N)nc21
- Selectivity Index [9]: 300
- EC50 (Human betaherpesvirus 5): 0.5 µM
- EC50 (Human alphaherpesvirus 3): 0.3 µM
- Selectivity Index [1]: 1
- EC50 [2]: 0.5 µM
- CC50 at 168 h [10]: 120 µM
- Selectivity Index [11]: >63
- EC50 [3]: 0.8 µM
- Selectivity Index [4]: 240
- CC50 (Daudi): > 50 µM
- CC50 [5]: 6.4 µM
- EC50 [6]: 2 µM
- EC50 [7]: 34 µM
- CC50 (MOLT-3): 51 µM
- EC50 (Human alphaherpesvirus 1): 0.6 µM
- CC50 [8]: 170 µM
- EC50 (Human alphaherpesvirus 2): 0.4 µM
- Selectivity Index [12]: 200

SMILES: Nc1nc(N)c2ncn(CCOCP(=O)(O)O)c2n1 [PMEDAP]
- Selectivity Index [9]: >10
- EC50 (Human betaherpesvirus 5): 13 µM
- EC50 (Human alphaherpesvirus 3): 2.9 µM
- Selectivity Index [1]: 1
- EC50 [2]: 0.2 µM
- CC50 at 168 h [10]: > 100 µM
- Selectivity Index [11]: >42
- EC50 [3]: 1.2 µM
- Selectivity Index [4]: >500
- CC50 (Daudi): > 50 µM
- CC50 [5]: > 56 µM
- EC50 [6]: 15 µM
- EC50 [7]: 28 µM
- CC50 (MOLT-3): 39 µM
- EC50 (Human alphaherpesvirus 1): > 10 µM
- CC50 [8]: 170 µM
- EC50 (Human alphaherpesvirus 2): > 10 µM
- Selectivity Index [12]: >10

SMILES: Nc1ccn(CCOCP(=O)(O)O)c(=O)n1
- Selectivity Index [9]: 1
- EC50 (Human betaherpesvirus 5): > 20 µM
- EC50 (Human alphaherpesvirus 3): > 300 µM
- Selectivity Index [1]: 1
- EC50 [2]: 63 µM
- CC50 at 168 h [10]: > 300 µM
- Selectivity Index [11]: <2.4
- EC50 [3]: > 41 µM
- Selectivity Index [4]: >480
- CC50 (Daudi): > 100 µM
- CC50 [5]: > 50 µM
- IC50 [6]: > 50 µM
- EC50 [7]: > 50 µM
- CC50 (MOLT-3): > 50 µM
- EC50 (Human alphaherpesvirus 1): > 300 µM
- CC50 [8]: 220 µM
- EC50 (Human alphaherpesvirus 2): > 300 µM
- Selectivity Index [12]: 1

SMILES: CCCCCCCCCCCCCCCCOCCCOP(=O)(O)COCCn1cc(Br)c(N)nc1=O
- Selectivity Index [9]: >17
- EC50 (Human betaherpesvirus 5): 4.8 µM
- EC50 (Human alphaherpesvirus 3): 42 µM
- Selectivity Index [1]: 1
- EC50 [2]: 1.3 µM
- CC50 at 168 h [10]: > 300 µM
- Selectivity Index [11]: >3400
- EC50 [3]: 0.03 µM
- Selectivity Index [4]: >230
- CC50 (Daudi): > 100 µM
- CC50 [5]: > 41 µM
- EC50 [6]: 38 µM
- EC50 [7]: > 45 µM
- CC50 (MOLT-3): > 50 µM
- EC50 (Human alphaherpesvirus 1): 1.2 µM
- CC50 [8]: 35 µM
- EC50 (Human alphaherpesvirus 2): 18 µM
- Selectivity Index [12]: >250

SMILES: CCCCCCCCCCCCCCCCOCCCOP(=O)(O)COCCn1cnc2c(NC3CC3)nc(N)nc21
- Selectivity Index [9]: 550
- EC50 (Human betaherpesvirus 5): 0.02 µM
- EC50 (Human alphaherpesvirus 3): 0.03 µM
- Selectivity Index [1]: 6
- EC50 [2]: < 0.03 µM
- CC50 at 168 h [10]: 110 µM
- Selectivity Index [11]: >71000
- EC50 [3]: 0.0007 µM
- Selectivity Index [4]: >3700
- CC50 (Daudi): > 50 µM
- CC50 [5]: 0.05 µM
- EC50 [6]: 0.05 µM
- EC50 [7]: 0.05 µM
- CC50 (MOLT-3): 0.3 µM
- EC50 (Human alphaherpesvirus 1): 0.1 µM
- CC50 [8]: 26 µM
- EC50 (Human alphaherpesvirus 2): 0.2 µM
- Selectivity Index [12]: 1100

SMILES: Nc1nc(NC2CC2)c2ncn(CCOCP(=O)(O)O)c2n1
- Selectivity Index [9]: >13
- EC50 (Human betaherpesvirus 5): 0.4 µM
- EC50 (Human alphaherpesvirus 3): 0.8 µM
- Selectivity Index [1]: 1
- EC50 [2]: < 0.06 µM
- CC50 at 168 h [10]: > 100 µM
- Selectivity Index [11]: 200
- EC50 [3]: 0.1 µM
- Selectivity Index [4]: >1700
- CC50 (Daudi): 20 µM
- CC50 [5]: 3 µM
- EC50 [6]: 1 µM
- EC50 [7]: 6.4 µM
- CC50 (MOLT-3): 8.5 µM
- EC50 (Human alphaherpesvirus 1): 4 µM
- CC50 [8]: 150 µM
- EC50 (Human alphaherpesvirus 2): 7.9 µM
- Selectivity Index [12]: >25
